From patent US5100907A, “Hydantoin esters” (Lonza, Inc., priority 1990, dated 1992)
Like-named read-outs stand apart in the source and are kept apart here.

Columns and labels:
[1] = Emulsion stability tests; format: physicochemical
Experimental: Emulsion stability tests were performed on the esters (I), and for comparison on the precursor esters (Ia), to determine the extent to which each stabilized a standardized solution of water and an oil, using a common procedure consisting of homogenizing a mixture containing the test ester (2%), myristyl propionate (7%), and water (91%). While two emulsifiers are normally used to prepare a cosmetic formulation, e.g. one with a high HLB and the other with a low HLB, the test method herein using only one emulsifier, i.e. the test ester, is fully indicative of the emulsifying attributes of these esters.
The tests were performed with emulsions (500 g), prepared by combining the test ester (10.0 g), myristyl propionate (35 g), and distilled water (455 g) in a container and homogenizing the contents for one minute, via a Kika-Werk Ultra-Turrax S D-45 homogenizer. The emulsions were poured into a one pound flint jar, capped, and periodically examined over a 55 day period.

[2] = Dispersion stability tests; format: physicochemical
Experimental: The dispersion stability tests were performed on the esters (I) to determine the extent each was able to disperse itself in an aqueous medium.
The dispersions were prepared by homogenizing a mixture of the test ester and water, after which repeated examination of the sample was effected for a period of 55 days. This test method is fully indicative of the dispersibility of these esters (I).
The dispersion tests were performed with the esters at 0.5% and 5.0% active levels in water, prepared by combining the test ester with distilled water, and homogenizing the mixture for one to three minutes, via a Kika-Werk Ultra-Turrax S D-45 homogenizer. The dispersions were poured into an eight ounce flint jar, capped, and periodically examined over a 55 day period.

[3] = Total available formaldehyde (TF) and free formaldehyde (FF) levels of esters (I); format: physicochemical; settings: for FF (free formaldehyde) / TF (total available formaldehyde): neat ester, Table 3
Text: Thus, whether the formaldehyde content is chemically bonded to the hydantoin moiety or is free formaldehyde (FF) in solution, e.g., in water as formaldehyde or methylene glycol [CH2 (OH)2 ], it remains available for biocidal action. Due to this direct relation, the weight percent TF in a given preparation of the ester (I), e.g. a cosmetic formulation, can be predicted accurately, regardless of the level of dilution.

[4] = Surface tension tests (cmc, Gibbs' Free Energy of Micellation); format: physicochemical; settings: for ΔG°cmc (Gibbs' Free Energy of Micellation): calculated from cmc by Eq. 1, T=298° K.; for cmc (critical micelle concentration): ester/water solution
Experimental: Surface tension tests were conducted as to the relationship between the fatty acid aliphatic chain length, i.e. number of carbon atoms, in the esters (I), and their performance as surfactants. The length of the hydrophobic chain of a molecule is considered the major contributing factor to the critical micelle concentration (cmc) value of a surfactant. This value is obtained from surface tension measurement data. The lower the cmc, the more readily the material will form micelles.
The Gibbs' Free Energy of Micellation (ΔG°cmc) and the ΔG°cmc per --CH2 -- can be determined if the cmc is known.
The ΔG°cmc is a calculated value obtained by Equation 1.
ΔG°cmc =2.303RT(log cmc-log[water]) (Eq. 1)
The ΔG°cmc per --CH2 -- value is obtained from the slope of the straight line curve formed from a plot of ΔG°cmc versus the number of carbon atoms in the lipophilic chain.
The cmc values were based on surface tension tests conducted with a tensiometer (Cenco-DuNoug Precision Model #70535, direct reading model) to determine the upward surface tension at the liquid-air surface of the test ester/water solution. The methods used to calibrate the tensiometer, calculate the "correction factor" (used to correct for the difference between the apparent and true surface tension), and collect data, were conducted as described in the manual for the instrument. Sodium lauryl sulfate (SLS) and distilled water were used as reference samples.
On completing data collection, plots of the surface tension (dynes) versus -log of the concentration (mols/liter) were prepared, using only the "corrected" surface tension value, obtained by applying the noted "correction factor" in each case. The […] was found by multiplying the "apparent" surface tension by a calculated correction factor.
The critical micelle concentration (cmc) for each sample was determined by locating the point in the curve where the surface tension first begins to level off, per a known procedure.

[5] = HLB determination (weighted average method); format: physicochemical
Text: Hydrophilic-Lipophilic Balance or HLB is a means of associating the hydrophilic and lipophilic characteristics between two surfactants. A "weighted average" method was used to determine the HLB of the esters (I), and by comparison of the precursor ester (Ia), in which two emulsifiers of known HLB values along with the test ester were incorporated in a mixture of mineral oil and water. Evaluation and HLB determination of each of a series of prepared emulsion samples were effected by visual inspection.
The HLB of the mixture "m" is calculated from the sum of the HLB contributions of each surfactant, "a", "b", "c", per Equation 2 which describes a system of oil, water, and three surfactants.
Given that [HLB]m, [HLB]a, and [HLB]b, are known, and the ideal amount of "a", "b", and "c" to prepare a perfect emulsion has been determined, then by rearrangement of Eq. 2, the HLB of "c" can be calculated by Equation 3.
To obtain the HLB of the test ester as surfactant "c", a series of formulations was prepared in which the known surfactant sorbitan monostearate (SMS) as "a" and the known surfactant POE 20 sorbitan monostearate (POE 20 SMS) as "b" were varied in amount (wt. %) relative to each other at a constant amount (1 wt. %) of "c", until an optimum emulsion was obtained. Different combinations of "a" and "b" were used to vary the HLB of "c", for emulsifying a 40:56 (wt. %) mixture of paraffin oil and distilled water (totaling 96 wt. %).
To prepare the emulsions, surfactants "a", "b", and "c", and the paraffin oil were combined in a 150 ml beaker and heated slowly with agitation to 70°-80° C. The value of "X" in each formulation was predetermined by rearranging Eq. 3 to solve for X, and then inserting into the equation various [HLB]c values for the test ester (i.e., 2, 3, 4, 5, 6 . . . ). The [HLB]c values chosen reflected a range that would likely contain the actual HLB of the test ester. Hot distilled water (70°-80° C.) was then slowly added with agitation. The total weight of all these reagents was 100 grams. The resulting emulsion was allowed to cool, with continued agitation, until the temperature dropped below 30° C.
A series of emulsions for each test was prepared, one at a time, and then examined as a set. Each sample within the series was evaluated and graded according to the quality of the emulsion by visual examination of droplet size.

[6] = Physical properties of methylolated MHEDMH esters (I): viscosity; format: physicochemical; settings: at 25° C.
[7] = test system: Pseudomonas aeruginosa; test: Antimicrobial study against Pseudomonas aeruginosa (gram-negative bacteria); format: cell-based; settings: methylolated C8/10 10,800 ppm, methylolated lauric 11,400 ppm, DMDMH 3,000 ppm, others 14,700 ppm
Experimental: (§1) The antimicrobial properties of typical esters (I) and (Ia) were tested by minimum inhibitory concentration (MIC) tests, along with certain known substances, against […] strains of organisms: a mold, Aspergillus niger; a gram-positive bacteria, Staphylococcus aureus; and two gram-negative bacteria, Escherichia coli and Pseudomonas aeruginosa. […] These tests were used to determine any effect on biocidal activity of the varying chain length of the ester.
(§2) The known substances, on which identical tests were also performed, included the biocide, dimethyloldimethylhydantoin or DMDMH (iv), and a series of three surfactants, i.e., the three common emulsifiers, sodium lauryl sulfate (SLS); ethylene glycol distearate (EGDS), in the form of the commercial product PEGOSPERSE 50 DS (Lonza Inc.); and polyoxyethylene 20 sorbitan monoleate (POE 20 SMO), in the form of the commercial product GLYCOSPERSE 0 20 (Lonza Inc.).
(§3) The tests entailed contaminating a preexisting micro-colony with a known quantity (ppm, concentration) of test material. Each colony was then examined periodically over a one week period. […] A test was deemed non-efficacious when there was no decrease in colony size. In an effort to avoid any possible solvent effect, the micro-study was conducted in a totally aqueous solvent system without use of any other solvent.

[8] = test system: Escherichia coli; test: Antimicrobial study against Escherichia coli (gram-negative bacteria); format: cell-based; settings: methylolated C8/10 10,800 ppm, methylolated lauric 11,400 ppm, DMDMH 3,000 ppm, others 14,700 ppm
Experimental: as §1, §2, §3

[9] = test system: Staphylococcus aureus; test: Antimicrobial study against Staphylococcus aureus (gram-positive bacteria); format: cell-based; settings: methylolated C8/10 10,800 ppm, methylolated lauric 11,400 ppm, DMDMH 3,000 ppm, others 14,700 ppm
Experimental: as §1, §2, §3

[10] = test system: Aspergillus niger; test: Antimicrobial study against Aspergillus niger (mold); format: cell-based; settings: methylolated C8/10 10,800 ppm, methylolated lauric 11,400 ppm, DMDMH 3,000 ppm, others 14,700 ppm
Experimental: as §1, §2, §3

[11] = Solubilities of esters in typical solvents / appearance of samples in water; format: physicochemical
[12] = 1% active concentration in water

2-(3-hydroxymethyl-5,5-dimethyl-1,3-diazacyclopentane-2,4-dion-1-yl)-ethylester of coconut fatty acid [Coconut Methylolated Ester]
ability to stabilize emulsions [1]: the best emulsifiers tested
duration of stabilized emulsions [1]: more than 22 days
stability of dispersions in water [2]: stable for weeks

2-(3-hydroxymethyl-5,5-dimethyl-1,3-diazacyclopentane-2,4-dion-1-yl)-ethylester of isostearic acid [Isostearic Methylolated Ester]
emulsion quality, decreasing order of rank [1]: cocoate, laurate>oleate,isostearate>stearate>C8/10 ester>acetate
Calculated TF [3, 12]: 0.062 Wt. %
Determined FF [3, 12]: 0.0082 Wt. %
FF (free formaldehyde) [3]: 0.2 Wt. %
TF (total available formaldehyde) [3]: 6.2 Wt. %
surface active properties [4]: particularly favorable surface active properties
ΔG°cmc (Gibbs' Free Energy of Micellation) [4]: -7.13 kcal/mol
cmc (critical micelle concentration) [4]: 3.0 × 10^-4 mol dm^-3
Average HLB [5]: 15.0
HLB Range [5]: 14-16
dispersion quality, decreasing order of rank [2]: isostearate>oleate>cocoate>laurate>C8/10ester>>stearate>acetate
Viscosity [6]: 957 cts

CCCCCCCCCCCC(=O)OCCN1C(=O)NC(=O)C1(C)C [Non-Methylolated Lauric Ester, 2-(5,5-dimethyl-1,3-diazacyclopentane-2,4-dion-1-yl)-ethyl ester of lauric acid]
Colony Count ([7]; Day 0): TNC
Colony Count ([7]; Day 1): TNC
Colony Count ([7]; Day 2): TNC
Colony Count ([7]; Day 3): 250 × 1,000
Colony Count ([7]; Day 7): TNC
Colony Count ([8]; Day 0): TNC
Colony Count ([8]; Day 1): TNC
Colony Count ([8]; Day 2): TNC
Colony Count ([8]; Day 3): TNC
Colony Count ([8]; Day 7): TNC
Colony Count ([9]; Day 0): TNC
Colony Count ([9]; Day 1): 500 × 1,000
Colony Count ([9]; Day 2): 3,000 × 1,000
Colony Count ([9]; Day 3): TNC
Colony Count ([9]; Day 7): 30 × 1,000
Colony Count ([10]; Day 0): 300 × 1,000
Colony Count ([10]; Day 1): 200 × 1,000
Colony Count ([10]; Day 2): 200 × 1,000
Colony Count ([10]; Day 3): 220 × 1,000
Colony Count ([10]; Day 7): 150 × 1,000
Average HLB [5]: 6.5
HLB Range [5]: 5-7

CCCCCCCCCCCCCCCCCC(=O)OCCN1C(=O)N(CO)C(=O)C1(C)C [Stearic Methylolated Ester, 2-(3-hydroxymethyl-5,5-dimethyl-1,3-diazacyclopentane-2,4-dion-1-yl)-ethylester of stearic acid]
emulsion quality, decreasing order of rank [1]: cocoate, laurate>oleate,isostearate>stearate>C8/10 ester>acetate
Classification of Emulsion ([1]; 2 Hours after preparation, 2% ester, 7% myristyl propionate, 91% water): Good/OK
Calculated TF [3, 12]: 0.064 Wt. %
Determined FF [3, 12]: 0.0066 Wt. %
Ratio FF/TF [3, 12]: 0.103
FF (free formaldehyde) [3]: 0.2 Wt. %
TF (total available formaldehyde) [3]: 6.4 Wt. %
ΔG°cmc (Gibbs' Free Energy of Micellation) [4]: -5.277 kcal/mol
cmc (critical micelle concentration) [4]: 7.0 × 10^-3 mol dm^-3
Average HLB [5]: 7.0
HLB Range [5]: 6-8
Average HLB ([5]; listed as stearate (I)): 7
dispersion quality, decreasing order of rank [2]: isostearate>oleate>cocoate>laurate>C8/10ester>>stearate>acetate
Classification of Dispersion ([2]; 0.5% active in water, 3 Days): 2-Phase
Classification of Dispersion ([2]; 0.5% active in water, 13 Days): 2-Phase
Classification of Dispersion ([2]; 0.5% active in water, 55 Days): 2-Phase
Classification of Dispersion ([2]; 5.0% active in water, 3 Days): 2-Phase
Classification of Dispersion ([2]; 5.0% active in water, 13 Days): 2-Phase
Classification of Dispersion ([2]; 5.0% active in water, 55 Days): 2-Phase
water solubility relative to the other esters [11]: far less soluble in water than the other such esters
Solubility in isopropyl alcohol ([11]; 25° C.): S (>10 g/100 g Solvent)
Solubility in mineral oil ([11]; 25° C.): S (>10 g/100 g Solvent)
solubility ([11]; water, 25° C., grams, legend per 100 g Solvent): < 10000 µg/mL
